# PubChem BioAssay AID248 (DTP/NCI, 2004)
# Several values for one entry are separate records, joined by “and”; a condition that tells them apart may be missing. Equal entries are not always repeated. Toxic doses and inconclusive results are not listed.
# System: L1210 leukemia ip in BDF1 mice, survival T/C
# Assay: NCI In Vivo Anticancer Drug Screen. Data for tumor model L1210 Leukemia (intraperitoneal) in B6D2F1 (BDF1) mice
# Conditions: endpoint: mean survival time, higher = longer survival
# Procedure, shortened: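 Read-out is survival time, reported as the treated-group measurement over the vehicle-control measurement.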
# [1] = dose: 25.0 mg/kg/injection, schedule: Q01DX009 (ip), vehicle: Klucel (hydroxypropylcellulose) (HPC)
# [2] = dose: 50.0 mg/kg/injection, schedule: Q01DX001 (ip), vehicle: saline
# [3] = dose: 50.0 mg/kg/injection, schedule: Q01DX009 (ip), vehicle: Klucel (hydroxypropylcellulose) (HPC)
# [4] = dose: 100.0 mg/kg/injection, schedule: Q01DX001 (ip), vehicle: saline
# [5] = dose: 100.0 mg/kg/injection, schedule: Q01DX009 (ip), vehicle: Klucel (hydroxypropylcellulose) (HPC)
# [6] = dose: 200.0 mg/kg/injection, schedule: Q01DX001 (ip), vehicle: saline
# [7] = dose: 400.0 mg/kg/injection, schedule: Q01DX001 (ip), vehicle: saline
smiles,measurement,setting,value
COc1cc(N(CCCl)CCCl)ccc1/C=N\NC(=O)c1cccnc1,T/C,[1],87 % of control
same,T/C,[2],105 % of control
same,T/C,[3],88 % of control
same,T/C,[4],105 % of control
same,T/C,[5],90 % of control
same,T/C,[6],100 % of control
same,T/C,"dose: 200.0 mg/kg/injection, schedule: Q01DX009 (ip), vehicle: Klucel (hydroxypropylcellulose) (HPC)",96 % of control
same,T/C,[7],97 % of control
NCCNCCN,T/C,[2],102 % of control
same,T/C,[4],116 % of control
same,T/C,[6],104 % of control
same,T/C,[7],108 % of control
CCOC(=O)/C(C#N)=C(/C)C1CC1,T/C,"dose: 6.25 mg/kg/injection, schedule: Q01DX009 (ip), vehicle: Klucel (hydroxypropylcellulose) (HPC)",95 % of control
same,T/C,"dose: 12.5 mg/kg/injection, schedule: Q01DX009 (ip), vehicle: Klucel (hydroxypropylcellulose) (HPC)",105 % of control
same,T/C,[1],97 % of control
same,T/C,"dose: 75.0 mg/kg/injection, schedule: Q01DX001 (ip), vehicle: carboxymethylcellulose (CMC)",95 % of control
same,T/C,"dose: 150.0 mg/kg/injection, schedule: Q01DX001 (ip), vehicle: carboxymethylcellulose (CMC)",105 % of control
O=S(=O)(Cl)c1ccccc1S(=O)(=O)Cl,T/C,"dose: 100.0 mg/kg/injection, schedule: Q04DX003 (ip), vehicle: Klucel (hydroxypropylcellulose) (HPC)",95 % of control
same,T/C,"dose: 200.0 mg/kg/injection, schedule: Q04DX003 (ip), vehicle: Klucel (hydroxypropylcellulose) (HPC)",93 % of control
same,T/C,"dose: 400.0 mg/kg/injection, schedule: Q04DX003 (ip), vehicle: Klucel (hydroxypropylcellulose) (HPC)",86 % of control
CCCCCCCCCCN(CCCCCCCCCC)C(C)C(=O)c1ccc2cc(Br)c3ccccc3c2c1 (stereo not given),T/C,"dose: 55.0 mg/kg/injection, schedule: Q01DX Z (ip), vehicle: methylcellulose (MC)",93 % of control
same,T/C,"dose: 83.0 mg/kg/injection, schedule: Q01DX Z (ip), vehicle: methylcellulose (MC)",100 % of control
same,T/C,"dose: 125.0 mg/kg/injection, schedule: Q01DX Z (ip), vehicle: methylcellulose (MC)",93 % of control
CCCCCP(=O)(CCCC)CCCCC,T/C,[3],89 % of control
same,T/C,[5],89 % of control
OCC(O)C(O)/C=N/N(Cc1ccccc1)c1ccccc1 (stereo not given),T/C,"dose: 50.0 mg/kg/injection, schedule: Q01DX001 (ip), vehicle: carboxymethylcellulose (CMC)",103 % of control
same,T/C,"dose: 100.0 mg/kg/injection, schedule: Q01DX001 (ip), vehicle: carboxymethylcellulose (CMC)",101 % of control
same,T/C,"dose: 200.0 mg/kg/injection, schedule: Q01DX001 (ip), vehicle: carboxymethylcellulose (CMC)",101 % of control
same,T/C,"dose: 400.0 mg/kg/injection, schedule: Q01DX001 (ip), vehicle: carboxymethylcellulose (CMC)",97 % of control
CCN(CC)C(=O)c1cccc(N)c1,T/C,[4],98 % of control
same,T/C,[6],98 % of control
same,T/C,[7],95 % of control
c1ccc2c(c1)CCc1ccccc1C2NC1=NCCO1,T/C,"dose: 12.5 mg/kg/injection, schedule: Q01DX009 (ip), vehicle: saline with Tween-80",94 % of control
same,T/C,"dose: 12.5 mg/kg/injection, schedule: Q04DX003 (ip), vehicle: saline with Tween-80",97 % of control
same,T/C,"dose: 25.0 mg/kg/injection, schedule: Q01DX009 (ip), vehicle: saline with Tween-80",89 % of control
same,T/C,"dose: 25.0 mg/kg/injection, schedule: Q04DX003 (ip), vehicle: saline with Tween-80",100 % of control
same,T/C,"dose: 50.0 mg/kg/injection, schedule: Q01DX009 (ip), vehicle: saline with Tween-80",93 % of control
same,T/C,"dose: 50.0 mg/kg/injection, schedule: Q04DX003 (ip), vehicle: saline with Tween-80",93 % of control
Nc1ccc(S(=O)(=O)NCCO)cc1[N+](=O)[O-],T/C,"dose: 100.0 mg/kg/injection, schedule: Q01DX001 (ip), vehicle: Klucel (hydroxypropylcellulose) (HPC)",103 % of control
same,T/C,"dose: 100.0 mg/kg/injection, schedule: Q01DX009 (ip), vehicle: saline sonified",96 % of control
same,T/C,"dose: 200.0 mg/kg/injection, schedule: Q01DX001 (ip), vehicle: Klucel (hydroxypropylcellulose) (HPC)",106 % of control
same,T/C,"dose: 200.0 mg/kg/injection, schedule: Q01DX009 (ip), vehicle: saline sonified",102 % of control
same,T/C,"dose: 400.0 mg/kg/injection, schedule: Q01DX001 (ip), vehicle: Klucel (hydroxypropylcellulose) (HPC)",105 % of control
same,T/C,"dose: 400.0 mg/kg/injection, schedule: Q01DX009 (ip), vehicle: saline sonified",93 % of control
O=C(CCc1ccc(Cl)cc1)Nc1ccccc1,T/C,"dose: 25.0 mg/kg/injection, schedule: Q04DX002 (ip), vehicle: Klucel (hydroxypropylcellulose) (HPC)",97 % of control
same,T/C,"dose: 50.0 mg/kg/injection, schedule: Q04DX002 (ip), vehicle: Klucel (hydroxypropylcellulose) (HPC)",86 % of control
same,T/C,"dose: 100.0 mg/kg/injection, schedule: Q04DX002 (ip), vehicle: Klucel (hydroxypropylcellulose) (HPC)",93 % of control
O=C1c2nc3ccccc3cc2CN1Cc1ccccc1,T/C,"dose: 10.0 mg/kg/injection, schedule: Q04DX003 (ip), vehicle: alcohol",97 % of control
same,T/C,"dose: 20.0 mg/kg/injection, schedule: Q04DX003 (ip), vehicle: alcohol",96 % of control
same,T/C,"dose: 40.0 mg/kg/injection, schedule: Q04DX003 (ip), vehicle: alcohol",96 % of control
same,T/C,"dose: 80.0 mg/kg/injection, schedule: Q04DX003 (ip), vehicle: alcohol",97 % of control
same,T/C,"dose: 160.0 mg/kg/injection, schedule: Q04DX003 (ip), vehicle: alcohol",92 % of control
NCCCC(N)C(=O)NCCCCCCNCCCCCCNC(=O)C(N)CCCN (stereo not given),T/C,"dose: 0.38 mg/kg/injection, schedule: Q01DX Z (ip), vehicle: saline",94 % of control
same,T/C,"dose: 0.75 mg/kg/injection, schedule: Q01DX Z (ip), vehicle: saline",102 % of control
same,T/C,"dose: 1.5 mg/kg/injection, schedule: Q01DX Z (ip), vehicle: saline",98 % of control
same,T/C,"dose: 3.0 mg/kg/injection, schedule: Q01DX Z (ip), vehicle: saline",100 % of control and 106 % of control
same,T/C,"dose: 10.0 mg/kg/injection, schedule: Q01DX Z (ip), vehicle: saline",93 % of control
same,T/C,"dose: 30.0 mg/kg/injection, schedule: Q01DX Z (ip), vehicle: saline",96 % of control
same,T/C,[2],101 % of control
same,T/C,[4],98 % of control
same,T/C,"dose: 100.0 mg/kg/injection, schedule: Q01DX Z (ip), vehicle: saline",91 % of control
same,T/C,[6],95 % of control
Cc1cc2c(cc1C)N(C(=O)CCl)CC(=O)N2,T/C,"dose: 9.37 mg/kg/injection, schedule: Q01DX009 (ip), vehicle: acetone",95 % of control
same,T/C,"dose: 18.75 mg/kg/injection, schedule: Q01DX009 (ip), vehicle: acetone",93 % of control
same,T/C,"dose: 18.75 mg/kg/injection, schedule: Q04DX003 (ip), vehicle: saline",96 % of control
same,T/C,"dose: 37.5 mg/kg/injection, schedule: Q01DX009 (ip), vehicle: acetone",93 % of control
same,T/C,"dose: 37.5 mg/kg/injection, schedule: Q04DX003 (ip), vehicle: saline",98 % of control
same,T/C,"dose: 75.0 mg/kg/injection, schedule: Q01DX001 (ip), vehicle: saline",113 % of control
same,T/C,"dose: 75.0 mg/kg/injection, schedule: Q04DX003 (ip), vehicle: saline",93 % of control
CN=C(N)Nc1ccc(NC(=O)c2ccc(C(=O)Nc3ccc(NC(N)=NC)cc3)cc2)cc1,T/C,"dose: 0.25 mg/kg/injection, schedule: Q01DX015 (ip), vehicle: methylcellulose (MC)",113 % of control
same,T/C,"dose: 0.25 mg/kg/injection, schedule: Q01DX Z (ip), vehicle: carboxymethylcellulose (CMC)",107 % of control
same,T/C,"dose: 0.5 mg/kg/injection, schedule: Q01DX015 (ip), vehicle: methylcellulose (MC)",110 % of control
same,T/C,"dose: 0.5 mg/kg/injection, schedule: Q01DX Z (ip), vehicle: carboxymethylcellulose (CMC)",123 % of control
same,T/C,"dose: 1.0 mg/kg/injection, schedule: Q01DX Z (ip), vehicle: carboxymethylcellulose (CMC)",156 % of control
same,T/C,"dose: 2.0 mg/kg/injection, schedule: Q01DX015 (ip), vehicle: methylcellulose (MC)",236 % of control
same,T/C,"dose: 2.0 mg/kg/injection, schedule: Q01DX Z (ip), vehicle: carboxymethylcellulose (CMC)",231 % of control and 254 % of control
same,T/C,"dose: 4.0 mg/kg/injection, schedule: Q01DX015 (ip), vehicle: methylcellulose (MC)",228 % of control
same,T/C,"dose: 4.0 mg/kg/injection, schedule: Q01DX Z (ip), vehicle: carboxymethylcellulose (CMC)",211 % of control
same,T/C,"dose: 16.0 mg/kg/injection, schedule: Q01DX015 (ip), vehicle: methylcellulose (MC)",93 % of control
same,T/C,"dose: 17.0 mg/kg/injection, schedule: Q01DX Z (ip), vehicle: carboxymethylcellulose (CMC)",100 % of control
same,T/C,"dose: 30.0 mg/kg/injection, schedule: Q01DX001 (ip), vehicle: methylcellulose (MC)",163 % of control and 211 % of control
same,T/C,"dose: 62.0 mg/kg/injection, schedule: Q01DX Z (oral), vehicle: carboxymethylcellulose (CMC)",98 % of control
same,T/C,"dose: 125.0 mg/kg/injection, schedule: Q01DX Z (oral), vehicle: carboxymethylcellulose (CMC)",101 % of control
same,T/C,"dose: 250.0 mg/kg/injection, schedule: Q01DX Z (oral), vehicle: carboxymethylcellulose (CMC)",105 % of control
same,T/C,"dose: 500.0 mg/kg/injection, schedule: Q01DX Z (oral), vehicle: carboxymethylcellulose (CMC)",105 % of control
